According to patent publication US9957236B2, “Selective inhibitors interfering with fibroblast growth factor receptor and FRS2 interaction for the prevention and treatment of cancer and other diseases” (LIMITED LIABILITY COMPANY “RUSSIAN PHARMACEUTICAL …, priority 2014, dated 2018):
pIC50: −log10 of the molar value.

Experiments:
[1] = test system: HS578T breast cancer cells; test: Crystal Violet proliferation assay, HS578T; type: cell-based; details: low FGFR2 expression, bFGF 100 ng/ml, 7 days
Description: This research used additional cell lines: SKOV3 (ovarian cancer, ATCC # HTB-77), HS578T (breast cancer, ATCC # HTB-126), T47D (breast cancer, ATCC #HTB-1336), modified line of non-small cells lung cancer A549, line of metastatic melanoma of skin Mel Kor (RF Patent No. 2287578), and additional study of antiangiogenic activity—cell line SVEC-4-10 (endothelial cells, ATCC #CRL-2181).
The cells were cultivated in environment RPMI-1640 (PANECO) (SKOV3, HS578T, T47D, Mel-Kor) or DMEM (PANECO) (SVEC-4-10) containing 10% of embryonal serum cattle (FCS, HyClone), 2 mM glutamine (PANECO), antibiotics (100 IU/mL penicillin and […] streptomycin (all PANECO)) at 37° C. and 5% CO2. Cells at 70-80% monolayer were used for the experiments.
The cells were planted in low density (30 t of cells/ml) in triplets on a 96-cavity plate in an environment containing 0.1% of FCS serum. […] Growth of cells was determined by the modified “Crystal Violet mitogenic method” for 7 days after the experiment start. […] The dye was dissolved in ethanol and measured on a spectrophotometer at 540-560 nm. The curve of cell proliferative activity inhibition was built by the dependence of the percent of the cell quantity (Y axis) on concentration of inhibitor RPT835 in the cavity of the plate (X axis). […]

HUVEC = test: Proliferation of endothelial cells HUVEC with FGF-2; type: cell-based; details: Homo sapiens, FGF-2 25 ng/ml, 96 hours, read-out: Cell growth suppression, IC50
Protocol: Endothelial cells HUVEC were sawn in 96-cavity plates and cultivate for 24 hours. After that, the following was added to the cells: • 1) inhibitor RPT835, or • 2) inhibitor described by Formula IX in this invention, or • 3) brivanib—multi-kinase inhibitor of FGFR/VEGFR, and also to all cells—FGF-2 in a concentration of 25 ng/ml.
The cells were cultivated for 96 hours in general and then were calculated.

FRS2 = biological target: T1, FRS2 (Homo sapiens, UniProt Q8WU20); test: FRS2 phosphorylation in FGF-2/heparin-stimulated KATO III cells (Western blotting, Wes); type: cell-based; design: endogenous in cells
T1 sequence (Q8WU20 1-508): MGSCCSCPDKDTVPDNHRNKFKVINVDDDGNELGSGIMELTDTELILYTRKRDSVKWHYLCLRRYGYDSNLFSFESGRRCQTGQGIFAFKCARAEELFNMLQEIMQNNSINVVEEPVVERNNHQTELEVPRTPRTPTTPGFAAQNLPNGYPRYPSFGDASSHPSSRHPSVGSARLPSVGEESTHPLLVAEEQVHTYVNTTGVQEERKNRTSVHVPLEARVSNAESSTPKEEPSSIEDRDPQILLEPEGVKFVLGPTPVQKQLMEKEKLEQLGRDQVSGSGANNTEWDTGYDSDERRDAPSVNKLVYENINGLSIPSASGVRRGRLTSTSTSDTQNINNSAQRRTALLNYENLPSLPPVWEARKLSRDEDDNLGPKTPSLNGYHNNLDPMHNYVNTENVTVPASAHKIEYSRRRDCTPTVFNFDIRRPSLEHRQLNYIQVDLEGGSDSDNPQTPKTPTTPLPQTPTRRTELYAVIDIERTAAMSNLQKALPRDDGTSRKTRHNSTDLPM
Protocol: For assessment of the effect of RPT835 inhibitor characterized in this invention with formula II, stomach cancer cells KATO III, which express FGFR2, were used for FRS2 phosphorylation. […] RPT835 was added in various concentrations. A part of the cells was left without adding the inhibitor, and a part of the cells—without adding either inhibitor, or stimulating agents (control group).
Two standard methods for assessment of the phosphorylation level of FGFR and FRS2: • Western blotting using manual work; • Automatic capillary electrophoresis and immunodetection using automatic system Wes™ (ProteinSimple; SantaClara, Calif.).
The purpose of this research was assessment of specific action of inhibitor RPT835 specified in this invention with formula II, on interaction of […] and FRS2 and assessment of influence on interaction of other types of FGFR and FRS2. For the experiment, 2 cell lines were selected: • stomach cancer KATO III, expressing FGFR2, and • breast cancer MDA MB 134, expressing FGFR1.
The research procedure was the same as in the previous examples: the cells were cultivated in presence of RPT835 followed by stimulation with FGF-2 and heparin. The other part of the cells was cultivated in presence of RPT835. Phosphorylation of FGFR1 (in breast cancer cells) and FGFR2 (in stomach cancer cells), and also FRS2a (in the both cell lines) and some intracellular kinases (in breast cancer cells) was assessed using manual and automated Western blotting.

hFOB cells = test: Proliferation of hFOB cells expressing FGFR2 IIIc; type: cell-based, human; details: RPT835 1 micron, FGF-1 100 ng/ml
Protocol: The research assessed the influence of inhibitor RPT835 determined by formula II of this invention, intervention with interaction of FGFR2 represented by two most frequent isoforms IIIb and IIIc with FRS2. For this, human cell line of embryonal osteoblasts (hFOB) expressing only FGFR2 […], and human cell line of breast cancer SUM-52 expressing FGFR2 IIIb (all main versions of isoform—C1, C2, C3) were chosen.
Cells were divided into the groups: • 1a) hFOB • 1b) hFOB, stimulating FGF-1 (100 ng/ml) • 1c) hFOB, cultivation with RPT835 (1 micron) and stimulation of FGF-1 (100 ng/ml) • 2a) SUM-52 • 2b) SUM-52, stimulation of FGF-1 (100 ng/ml) • 2c) SUM-52, cultivation with RPT835 (1 micron) and stimulation of FGF-1 (100 ng/ml)

Cc1cc([N+](=O)[O-])c(NS(=O)(=O)c2cccc(C(=O)O)c2)cc1-c1cccnc1 [RPT835, 3-(N-(4-methyl-2-nitro-5-(pyridin-3-yl)phenyl)sulfamoyl)benzoic acid]
inhibition of proliferative activity [1]: moderate effect | pIC50 (HUVEC): 7.96 | pIC50 (FRS2; FGF-2 and heparin stimulation, read-out: concentration of the semi-maximal inhibiting (IC50) of FRS2 phosphorylation): > 8.00 | Suppression of FRS2α phosphorylation (FRS2; concentration of 10 nM): > 50% | phosphorylation of FRS2α (FGFR2 system) (FRS2; dose of 100 nM): completely decreased phosphorylation of FRS2α (FGFR2 system) to the initial level | proliferation of cells (hFOB cells): reliably suppressed proliferation
